Results: patent publication US12643887B2, “Heterocyclic derivatives with cardiomyocyte proliferation activity for treatment of heart diseases” (Tongji University, priority 2019, dated 2026)

Assays:
[1] = target: T1, human HIPK1 (Homo sapiens, UniProt Q86Z02); test: HIPK1 enzyme assay (ADP-Glo); format: biochemical; conditions: ADP-Glo, ATP 5 μM; read-out: HIPK1 IC50
T1 construct: Recombinant human HIPK1 (156-555); GST (N); purchased SignalChem H03-11G; host or cells: Sf9 insect cells
Description: The ability of compounds to inhibit human HIPK1 kinase activities was determined using a commercially available ADP-Glo™ Kinase Assay kit (Promega, Cat #V9102) according to the manufacturer's protocol.
(§1) Recombinant human HIPK1 (156-555) (expressed in Sf9 insect cells with an N-terminal GST tag) was purchased from SignalChem (Cat #H03-11G). Recombinant full length human MBP (expressed in E. Coli cells with an N-terminal GST tag) was purchased from SignalChem (Cat #M42-54G). This assay, run in a 384-well plate format, is a generic method for measuring kinase activities using an ADP-Glo Kinase Assay Kit. The basic assay procedure involves two steps: (1) Enzymatic step: inhibitors are incubated with the kinase and then ATP (included in the ADP-Glo Kinase Assay Kit) and the MBP protein are added to start the enzymatic reaction; (2) Detection step: after the kinase reaction, first ADP-Glo™ Reagent is added to terminate the kinase reaction and deplete the remaining ATP. Second, the Kinase Detection Reagent is added to simultaneously convert ADP to ATP and allow the newly synthesized ATP to be measured using a luciferase/luciferin reaction. The light generated is measured using a luminometer.
(§2) Briefly, HIPK1 (4 nM) in the enzymatic buffer solutions (40 mM Tris, pH 7.5, 20 mM MgCl2, 0.1 mg/ml BSA, 50 μM DTT) were mixed with various concentrations of inhibitors (dissolved in 100% DMSO). These solutions were incubated for 30 minutes at 25° C., and subsequently a mixture of substrate peptide and ATP was added with the final peptide and ATP concentrations at 0.05 mg/ml and 5 μM, respectively. The final reaction mixture of enzyme-substrate-ATP-compound was incubated for 90 minutes at 25° C.
(§3) Afterwards ADP-Glo™ Reagent was added and the mixture was incubated at 25° C. for 60 minutes. Then Kinase Detection Reagent was added, and the final mixture was incubated at 25° C. for 60 minutes. The luminescence signal of the final solution was measured on an Envision instrument (PerkinElmer). The percent (%) inhibition at each concentration of a compound is calculated relative to the luminescence signal in the Max and Min control wells contained within each assay plate. […] The concentrations and percent inhibition values for a test compound are plotted and the concentration of the compound required to achieve 50% inhibition (IC50) is determined with a four-parameter logistic dose response equation.

[2] = target: T2, human GSK3 beta (Homo sapiens, UniProt P49841); test: GSK3 beta enzyme assay (ADP-Glo); format: biochemical; conditions: ATP 25 μM, read-out: GSK3b IC50
T2 construct: Recombinant full-length human GSK3 beta (expressed in Sf9 insect cells with an N-terminal His tag); His (N); purchased SignalChem G09-10H; host or cells: Sf9 insect cells
T2 sequence (P49841 whole entry): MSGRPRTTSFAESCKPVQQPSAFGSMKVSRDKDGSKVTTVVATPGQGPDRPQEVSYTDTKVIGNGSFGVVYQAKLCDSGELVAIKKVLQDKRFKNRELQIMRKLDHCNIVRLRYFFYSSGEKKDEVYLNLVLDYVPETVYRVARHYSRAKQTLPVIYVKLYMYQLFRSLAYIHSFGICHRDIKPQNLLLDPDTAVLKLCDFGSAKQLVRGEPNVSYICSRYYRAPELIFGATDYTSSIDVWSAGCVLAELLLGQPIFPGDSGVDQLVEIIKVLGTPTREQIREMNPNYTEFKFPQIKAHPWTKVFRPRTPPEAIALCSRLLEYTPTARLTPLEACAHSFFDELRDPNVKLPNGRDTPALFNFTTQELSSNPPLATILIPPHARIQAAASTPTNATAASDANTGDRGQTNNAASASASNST
Description: 1. GSK3 Beta Enzyme Assay
The ability of compounds to inhibit human GSK3 beta kinase activities was determined using a commercially available ADP-Glo™ Kinase Assay kit (Promega, Cat #V9102) according to the manufacturer's protocol. The ADP-Glo™ Kinase Assay is a luminescent ADP detection assay that provides a universal, homogeneous, high-throughput screening method to measure kinase activity by quantifying the amount of ADP produced during a kinase reaction. The ADP-Glo™ Kinase Assay can be used to monitor the activity of virtually any ADP-generating enzymes (e.g., kinases or ATPases).
as §1, with “Recombinant full-length” for “Recombinant”, “GSK3 beta” for “HIPK1 (156-555)”, “His” for “GST”, “#G09-10H). The GSK3 substrate peptide (sequence: […](pS)EDEEE)” for “#H03-11G). Recombinant full length human MBP (expressed in E. Coli cells with an N-terminal GST tag)”, “#G50-58).” for “#M42-54G).”, “GSK3 substrate peptide” for “MBP protein”
as §2, with “Briefly, GSK3 beta” for “Briefly, HIPK1”, “at 13 μM” for “at 0.05 mg/ml”, “and 25” for “and 5”, “for 60” for “for 90”
as §3, with “added” for “added,”

T1 sequence (Q86Z02 156-555): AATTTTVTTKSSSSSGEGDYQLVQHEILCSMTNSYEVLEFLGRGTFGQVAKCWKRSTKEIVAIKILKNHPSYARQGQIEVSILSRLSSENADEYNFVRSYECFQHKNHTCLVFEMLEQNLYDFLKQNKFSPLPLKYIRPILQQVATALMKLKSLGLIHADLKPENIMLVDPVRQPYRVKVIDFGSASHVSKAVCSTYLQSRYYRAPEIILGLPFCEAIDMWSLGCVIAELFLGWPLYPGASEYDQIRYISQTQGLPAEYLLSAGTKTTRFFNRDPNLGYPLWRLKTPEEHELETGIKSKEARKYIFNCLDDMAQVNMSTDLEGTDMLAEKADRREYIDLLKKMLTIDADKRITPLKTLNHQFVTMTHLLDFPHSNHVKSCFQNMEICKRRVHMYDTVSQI

IC50 [1] [µM]	IC50 [2] [µM]	SMILES
1 to 10	1 to 10	CN(Cc1ccccc1)C1=N/C(=C\c2ccc3ncsc3c2)C(=O)N1 [Example 28, (Z)-5-(benzo[d]thiazol-6-ylmethylene)-2-(benzyl(methyl)amino)-3,5-dihydro-4H-imidazol-4-one]
1 to 10	1 to 10	O=C1NC(NCCN2CCOCC2)=N/C1=C\c1ccc2ncsc2c1 [Example 29, (Z)-5-(benzo[d]thiazol-6-ylmethylene)-2-((2-morpholinoethyl)amino)-3,5-dihydro-4H-imidazol-4-one]
0.1 to 1	1 to 10	O=C1NC(NCc2ccccc2)=N/C1=C\c1ccc2ncsc2c1 [Example 31, (Z)-5-(benzo[d]thiazol-6-ylmethylene)-2-(benzylamino)-3,5-dihydro-4H-imidazol-4-one]
> 10	1 to 10	CN(CCN1CCOCC1)C1=N/C(=C\c2ccc3ncsc3c2)C(=O)N1 [Example 32, (Z)-5-(benzo[d]thiazol-6-ylmethylene)-2-(methyl(2-morpholinoethyl)amino)-3,5-dihydro-4H-imidazol-4-one]
> 10	> 10	CN(CC1CC1)C1=N/C(=C\c2ccc3ncsc3c2)C(=O)N1 [Example 33, (Z)-5-(benzo[d]thiazol-6-ylmethylene)-2-((cyclopropylmethyl)(methyl)amino)-3,5-dihydro-4H-imidazol-4-one]
1 to 10	1 to 10	O=C1NC(NCC2CC2)=N/C1=C\c1ccc2ncsc2c1 [Example 34, (Z)-5-(benzo[d]thiazol-6-ylmethylene)-2-((cyclopropylmethyl)amino)-3,5-dihydro-4H-imidazol-4-one]
> 10	> 10	O=C1NC(N(Cc2ccccc2)c2ccccc2)=N/C1=C\c1ccc2[nH]cnc2c1 [Example 35, (Z)-5-((1H-benzo[d]imidazol-5-yl)methylene)-2-(benzyl(phenyl)amino)-3,5-dihydro-4H-imidazol-4-one]
1 to 10	> 10	COc1ccc(N(C)C2=N/C(=C\c3ccc4ncsc4c3)C(=O)N2)cc1 [Example 38, (Z)-5-(benzo[d]thiazol-6-ylmethylene)-2-((4-methoxyphenyl)(methyl)amino)-3,5-dihydro-4H-imidazol-4-one]
> 10	> 10	O=C1NC(N(CC2CC2)c2ccccc2)=N/C1=C\c1ccc2c(c1)OCCO2 [Example 39, (Z)-2-((cyclopropylmethyl)(phenyl)amino)-5-((2,3-dihydrobenzo[b][1,4]dioxin-6-yl)methylene)-3,5-dihydro-4H-imidazol-4-one]
1 to 10	> 10	O=C1NC(Nc2ccc(Cl)cc2)=N/C1=C\c1ccc2ncsc2c1 [Example 40, (Z)-5-(benzo[d]thiazol-6-ylmethylene)-2-((4-chlorophenyl)amino)-3,5-dihydro-4H-imidazol-4-one]
> 10	> 10	CN(C1=N/C(=C\c2ccc3ncsc3c2)C(=O)N1)c1ccc([N+](=O)[O-])cc1 [Example 43, (Z)-5-(benzo[d]thiazol-6-ylmethylene)-2-(methyl(4-nitrophenyl)amino)-3,5-dihydro-4H-imidazol-4-one]
1 to 10	1 to 10	CN(C1=N/C(=C\c2ccc3ncsc3c2)C(=O)N1)c1ccc(N)cc1 [Example 44, (Z)-2-((4-aminophenyl)(methyl)amino)-5-(benzo[d]thiazol-6-ylmethylene)-3,5-dihydro-4H-imidazol-4-one]
> 10	> 10	O=C1NC(Nc2ccc3ncsc3c2)=N/C1=C\c1ccc2c(c1)OCO2 [Example 47, (Z)-5-(benzo[d][1,3]dioxol-5-ylmethylene)-2-(benzo[d]thiazol-6-ylamino)-3,5-dihydro-4H-imidazol-4-one]

SMILES	IC50 [1] [µM]	IC50 [2] [µM]
O=C1NC(Nc2ccccc2)=N/C1=C\c1ccc2[nH]cnc2c1 [Example 26, (Z)-5-((1H-benzo[d]imidazol-5-yl)methylene)-2-(phenylamino)-3,5-dihydro-4H-imidazol-4-one]	0.1 to 1	0.1 to 1
O=C(O)CCN(C1=N/C(=C\c2ccc3c(c2)OCO3)C(=O)N1)c1ccccc1 [Example 27, (Z)-3-((4-(benzo[d][1,3]dioxol-5-ylmethylene)-5-oxo-4,5-dihydro-1H-imidazol-2-yl)(phenyl)amino)propanoic acid]	1 to 10	> 10
CN(C1=N/C(=C\c2ccc3[nH]cnc3c2)C(=O)N1)c1ccccc1 [Example 30, (Z)-5-((1H-benzo[d]imidazol-5-yl)methylene)-2-(methyl(phenyl)amino)-3,5-dihydro-4H-imidazol-4-one]	> 10	> 10
NC(=O)CCN(C1=N/C(=C\c2ccc3c(c2)OCO3)C(=O)N1)c1ccccc1 [Example 36, (Z)-3-((4-(benzo[d][1,3]dioxol-5-ylmethylene)-5-oxo-4,5-dihydro-1H-imidazol-2-yl)(phenyl)amino)propanamide]	> 10	> 10
CN(C1=N/C(=C\c2ccc3c(c2)OCO3)C(=O)N1)c1ccc(N)cc1 [Example 37, (Z)-2-((4-aminophenyl)(methyl)amino)-5-(benzo[d][1,3]dioxol-5-ylmethylene)-3,5-dihydro-4H-imidazol-4-one]	> 10	> 10
O=C1NC(N(Cc2ccccc2)c2ccccc2)=N/C1=C\c1ccc2ncsc2c1 [Example 41, (Z)-5-(benzo[d]thiazol-6-ylmethylene)-2-(benzyl(phenyl)amino)-3,5-dihydro-4H-imidazol-4-one]	> 10	1 to 10
O=C1/C(=C/c2ccc3ncsc3c2)N=C(N(Cc2ccccc2)c2ccccc2)N1Cc1ccccc1 [Example 42, (Z)-5-(benzo[d]thiazol-6-ylmethylene)-3-benzyl-2-(benzyl(phenyl)amino)-3,5-dihydro-4H-imidazol-4-one]	> 10	> 10
CC(C)NC1=N/C(=C\c2ccc3ncsc3c2)C(=O)N1C [Example 45, (Z)-5-(benzo[d]thiazol-6-ylmethylene)-2-(isopropylamino)-3-methyl-3,5-dihydro-4H-imidazol-4-one]	1 to 10	1 to 10
Cn1cnc2ccc(/C=C3\N=C(Nc4ccccc4)NC3=O)cc21 [Example 46, (Z)-5-((1-methyl-1H-benzo[d]imidazol-6-yl)methylene)-2-(phenylamino)-3,5-dihydro-4H-imidazol-4-one]	0.1 to 1	0.1 to 1
